# Experimental data as given in patent publication US10953094B2, “Pulse photodynamic treatment of photodamaged skin” (GALDERMA RESEARCH & DEVELOPMENT, priority 2013, dated 2021).
# Assays:
# [1] = Pulse exposure 30 min (Method A), investigation of efficacy and inflammation; type: in vivo; conditions: 30 min pulse exposure vs conventional 3-hour exposure
# Procedure: (§1) The formation of PPIX after 3 hours is seen in FIG. 8, and the relation to inflammation is seen in FIG. 9. […] The results are illustrated in Column 3 in FIGS. 4, 5, 6, and 7. […] Pain level is not changed.
# facial photodamage = experiment: Double-blind randomized-controlled trial of daylight PDT, efficacy in facial photodamage; type: in vivo, human
# Procedure: (§2) A double-blind randomized-controlled trial has been conducted to determine whether daylight PDT is an efficient method for treating photodamaged skin. […] Neither the investigator nor the patient knew which agent was administered, as it was applied by a trained professional nurse. To enhance product/placebo penetration a subtle abrasion with sandpaper of the whole face was performed. Also, a sunscreen (Cetaphil Dermacontrol SPF30®) was applied to the entire sun-exposed area including the treatment area in both groups during daylight-PDT, to avoid sunburn. Efficacy was evaluated after 1 month of the third (last) daylight session.
# [2] = Pulse time investigation (Method B), PPIX formation in healthy volunteers; type: in vivo, human; conditions: PPIX formation after 3 hours; pulse times 20, 40, 60, 180 min
# Procedure: as §1
# Twenty-four healthy male volunteers of Scandinavian ancestry were included in the study (mean age 30 years, range 20-51). A treatment area was selected on the inside of both forearms of the volunteer. Each treatment area was divided into four minor treatment fields of the size 2×5 cm with at least 3 cm between each field using a prefabricated flexible template. In order to imitate skin lesions all fields were tape stripped 10 times with occlusive dressing before treatment (Tegaderm™ Roll, 3M, Glostrup, Denmark). […]
# All fields were covered with light-impermeable, occlusive dressing. […] During and after illumination pain was recorded. […]
# 5-MAL-induced PpIX fluorescence was depicted non-invasively using a fluorescence camera (Medeikonos AB, Gothenburg, Sweden). The amount of PpIX fluorescence was calculated from the photographs by the program MatLab® (MatLab®, MathWorks, Natic, US). The amount of fluorescence was measured before tape stripping and cream application (baseline) and before and after illumination.
# The photo bleaching is then the difference in PpIX fluorescence (AU) calculated from the pre and post illumination images.
# [3] = Same daylight PDT trial, pain VAS and skin reactions 1 week after sessions; type: in vivo, human
# Procedure: as §2, with “[…] Similarly, there were no statistical differences in the effects experimented by patients by patients one week after sessions, and in some of these variables no effect” for “Efficacy”, “found depending on each session (below table).” for “evaluated after 1 month of the third (last) daylight session.”
# [4] = out of 30 subjects, 1 month after third daylight session
# [5] = specific photodamage severity score, 1 month after third session
# [6] = reaction 1 week after session 1
# [7] = reaction 1 week after session 2
# [8] = reaction 1 week after session 3
smiles,measurement,setting,value
"COC(=O)CCC(=O)CN [Metvix, methyl aminolevulinate]",Pain level,[1],not changed
same,inflammation (erythema),[1],clearly diminishes
same,"facial improvement, number of subjects",facial photodamage; [4],14
same,"facial success, number of subjects",facial photodamage; [4],11
same,"Coarse lines: failure, % of subjects",facial photodamage; [5],(30%)
same,"Coarse lines: improvement, % of subjects",facial photodamage; [5],(50%)
same,"Coarse lines: sucess, % of subjects",facial photodamage; [5],(20%)
same,"Erythema: failure, % of subjects",facial photodamage; [5],(20%)
same,"Erythema: improvement, % of subjects",facial photodamage; [5],(53.3%)
same,"Erythema: sucess, % of subjects",facial photodamage; [5],(26.7%)
same,"Fine lines: failure, % of subjects",facial photodamage; [5],(20%)
same,"Fine lines: improvement, % of subjects",facial photodamage; [5],(43.3%)
same,"Fine lines: sucess, % of subjects",facial photodamage; [5],(36.7%)
same,"Mottled pigmentation: failure, % of subjects",facial photodamage; [5],(23.3%)
same,"Mottled pigmentation: improvement, % of subjects",facial photodamage; [5],(60%)
same,"Mottled pigmentation: sucess, % of subjects",facial photodamage; [5],(16.7%)
same,"Sallowness: failure, % of subjects",facial photodamage; [5],(16.7%)
same,"Sallowness: improvement, % of subjects",facial photodamage; [5],(30%)
same,"Sallowness: sucess, % of subjects",facial photodamage; [5],(53.3%)
same,"Tactile roughness: failure, % of subjects",facial photodamage; [5],(16.7%)
same,"Tactile roughness: improvement, % of subjects",facial photodamage; [5],(20%)
same,"Tactile roughness: sucess, % of subjects",facial photodamage; [5],(63.3%)
same,pulse exposure time at which PPIX concentration speeds up,[2],20 to 40 min
same,"Pain VAS score, mean",[3]; after session 1,0.80
same,"Pain VAS score, median",[3]; after session 1,(0)
same,"Pain VAS score, mean",[3]; after session 2,0.60
same,"Pain VAS score, median",[3]; after session 2,(0)
same,"Pain VAS score, mean",[3]; after session 3,1.13
same,"Pain VAS score, median",[3]; after session 3,(0)
same,"Desquamation score 0, % of subjects",[3]; [6],(53.3%)
same,"Desquamation score 1, % of subjects",[3]; [6],(30%)
same,"Desquamation score 2, % of subjects",[3]; [6],(16.7%)
same,"Desquamation score 3, % of subjects",[3]; [6],(0%)
same,"Erythema score 0, % of subjects",[3]; [6],(66.7%)
same,"Erythema score 1, % of subjects",[3]; [6],(26.7%)
same,"Erythema score 2, % of subjects",[3]; [6],(6.7%)
same,"Erythema score 3, % of subjects",[3]; [6],(0%)
same,"Oedema score 0, % of subjects",[3]; [6],(100%)
same,"Oedema score 1, % of subjects",[3]; [6],(0%)
same,"Oedema score 2, % of subjects",[3]; [6],(0%)
same,"Oedema score 3, % of subjects",[3]; [6],(0%)
same,"Oozing score 0, % of subjects",[3]; [6],(100%)
same,"Oozing score 1, % of subjects",[3]; [6],(0%)
same,"Oozing score 2, % of subjects",[3]; [6],(0%)
same,"Oozing score 3, % of subjects",[3]; [6],(0%)
same,"Pigmentation score 0, % of subjects",[3]; [6],(96.7) %
same,"Pigmentation score 1, % of subjects",[3]; [6],(3.3%)
same,"Pigmentation score 2, % of subjects",[3]; [6],(0%)
same,"Pigmentation score 3, % of subjects",[3]; [6],(0%)
same,"Vesiculation score 0, % of subjects",[3]; [6],(100%)
same,"Vesiculation score 1, % of subjects",[3]; [6],(0%)
same,"Vesiculation score 2, % of subjects",[3]; [6],(0%)
same,"Vesiculation score 3, % of subjects",[3]; [6],(0%)
same,"Desquamation score 0, % of subjects",[3]; [7],(50%)
same,"Desquamation score 1, % of subjects",[3]; [7],(40%)
same,"Desquamation score 2, % of subjects",[3]; [7],(10%)
same,"Desquamation score 3, % of subjects",[3]; [7],(0%)
same,"Erythema score 0, % of subjects",[3]; [7],(63.3%)
same,"Erythema score 1, % of subjects",[3]; [7],(36.7%)
same,"Erythema score 2, % of subjects",[3]; [7],(0%)
same,"Erythema score 3, % of subjects",[3]; [7],(0%)
same,"Oedema score 0, % of subjects",[3]; [7],(100%)
same,"Oedema score 1, % of subjects",[3]; [7],(0%)
same,"Oedema score 2, % of subjects",[3]; [7],(0%)
same,"Oedema score 3, % of subjects",[3]; [7],(0%)
same,"Oozing score 0, % of subjects",[3]; [7],(100%)
same,"Oozing score 1, % of subjects",[3]; [7],(0%)
same,"Oozing score 2, % of subjects",[3]; [7],(0%)
same,"Oozing score 3, % of subjects",[3]; [7],(0%)
same,"Pigmentation score 0, % of subjects",[3]; [7],(96.7%)
same,"Pigmentation score 1, % of subjects",[3]; [7],(3.3%)
same,"Pigmentation score 2, % of subjects",[3]; [7],(0%)
same,"Pigmentation score 3, % of subjects",[3]; [7],(0%)
same,"Vesiculation score 0, % of subjects",[3]; [7],(100%)
same,"Vesiculation score 1, % of subjects",[3]; [7],(0%)
same,"Vesiculation score 2, % of subjects",[3]; [7],(0%)
same,"Vesiculation score 3, % of subjects",[3]; [7],(0%)
same,"Desquamation score 0, % of subjects",[3]; [8],(50%)
same,"Desquamation score 1, % of subjects",[3]; [8],(40%)
same,"Desquamation score 2, % of subjects",[3]; [8],(10%)
same,"Desquamation score 3, % of subjects",[3]; [8],(0%)
same,"Erythema score 0, % of subjects",[3]; [8],(76.7%)
same,"Erythema score 1, % of subjects",[3]; [8],(23.3%)
same,"Erythema score 2, % of subjects",[3]; [8],(0%)
same,"Erythema score 3, % of subjects",[3]; [8],(0%)
same,"Oedema score 0, % of subjects",[3]; [8],(100%)
same,"Oedema score 1, % of subjects",[3]; [8],(0%)
same,"Oedema score 2, % of subjects",[3]; [8],(0%)
same,"Oedema score 3, % of subjects",[3]; [8],(0%)
same,"Oozing score 0, % of subjects",[3]; [8],(100%)
same,"Oozing score 1, % of subjects",[3]; [8],(0%)
same,"Oozing score 2, % of subjects",[3]; [8],(0%)
same,"Oozing score 3, % of subjects",[3]; [8],(0%)
same,"Pigmentation score 0, % of subjects",[3]; [8],(86.7%)
same,"Pigmentation score 1, % of subjects",[3]; [8],(13.3%)
same,"Pigmentation score 2, % of subjects",[3]; [8],(10%)
same,"Pigmentation score 3, % of subjects",[3]; [8],(0%)
same,"Vesiculation score 0, % of subjects",[3]; [8],(100%)
same,"Vesiculation score 1, % of subjects",[3]; [8],(0%)
same,"Vesiculation score 2, % of subjects",[3]; [8],(0%)
same,"Vesiculation score 3, % of subjects",[3]; [8],(0%)
